In this experiment the test system is recombinant NL4-3 virus (Renilla luciferase in nef, Gag P373S; NLRluc) in MT-2 cells. Briefly: whole plant or invertebrate. The note with it: Renilla, NL43, luciferase activity in cells infected for 4-5 days with NLRluc recombinants, serial dilutions of inhibitor, read-out: EC50. The class given is cell-based, HIV. As to the method:
MT-2 cells and 293T cells were obtained from the NIH AIDS Research and Reference Reagent Program. MT-2 cells were propagated in RPMI 1640 media supplemented with 10% heat inactivated fetal bovine serum, […]. The 293T cells were propagated in DMEM media supplemented with 10% heat inactivated fetal bovine serum (FBS), 100 units/ml penicillin G and 100 μg/ml streptomycin. The proviral DNA clone of NL4-3 was obtained from the NIH AIDS Research and Reference Reagent Program. A recombinant NL4-3 virus, in which a section of the nef gene from NL4-3 was replaced with the Renilla luciferase gene, was used as a reference virus. In addition, residue Gag P373 was converted to P373S. Briefly, the recombinant virus was prepared by transfection of the altered proviral clone of NL4-3. Transfections were performed in 293T cells using LipofectAMINE PLUS from Invitrogen (Carlsbad, Calif.), according to manufacturer's instruction. The virus was titered in MT-2 cells using luciferase enzyme activity as a marker. Luciferase was quantitated using the Dual Luciferase kit from Promega (Madison, Wis.), with modifications to the manufacturer's protocol. The diluted Passive Lysis solution was pre-mixed with the re-suspended Luciferase Assay Reagent and the re-suspended Stop & Glo Substrate (2:1:1 ratio). Fifty (50) μL of the mixture was added to each aspirated well on assay plates and luciferase activity was measured immediately on a Wallac TriLux (Perkin-Elmer). Antiviral activities of inhibitors toward the recombinant virus were quantified by measuring luciferase activity in cells infected for 4-5 days with NLRluc recombinants in the presence serial dilutions of the inhibitor. Table 1 is the key for the data in Table 2.

The record followed here is patent publication US20140343000A1 (priority 2011, published 2014).

pEC50: −log10 of the molar value. Where two headings read alike, the source gives them in different places.

Regarding `C=C(C)[C@@H]1CC[C@]2(NCCN3CCN(S(=O)(=O)c4ccc(C)cc4)CC3)CC[C@]3(C)[C@H](CC[C@@H]4[C@@]5(C)CC=C(c6ccc(C(=O)O)cc6)C(C)(C)[C@@H]5CC[C@]43C)[C@@H]12` [Example B48, 4-((1R,3aS,5aR,5bR,7aR,11aS,11bR,13aR,13bR)-5a,5b,8,8,11a-pentamethyl-1-(prop-1-en-2-yl)-3a-((2-(4-tosylpiperazin-1-yl)ethyl)amino)-2,3,3a,4,5,5a,5b,6,7,7a,8,11,11a,11b,12,13,13a,13b-octadecahydro-1H-cyclopenta[a]chrysen-9-yl)benzoic acid], the pEC50 (class symbols (key in Table 1)) is above 7.00. Turning to `C=C(C)[C@@H]1CC[C@]2(NCCNc3nccs3)CC[C@]3(C)[C@H](CC[C@@H]4[C@@]5(C)CC=C(c6ccc(C(=O)O)cc6)C(C)(C)[C@@H]5CC[C@]43C)[C@@H]12` [Example 193, 4-((1R,3aS,5aR,5bR,7aR,11aS,11bR,13aR,13bR)-5a,5b,8,8,11a-pentamethyl-1-(prop-1-en-2-yl)-3a-(2-(thiazol-2-ylamino)ethylamino)-2,3,3a,4,5,5a,5b,6,7,7a,8,11,11a,11b,12,13,13a,13b-octadecahydro-1H-cyclopenta[a]chrysen-9-yl)benzoic acid], under “numeric values”, the pEC50 is 7.70. `C=C(C)[C@@H]1CC[C@]2(NC(=O)CN3CCN(CCO)CC3)CC[C@]3(C)[C@H](CC[C@@H]4[C@@]5(C)CC=C(c6ccc(C(=O)O)cc6)C(C)(C)[C@@H]5CC[C@]43C)[C@@H]12` [Example 84, 4-((1R,3aS,5aR,5bR,7aR,11aS,11bR,13aR,13bR)-3a-(2-(4-(2-hydroxyethyl)piperazin-1-yl)acetamido)-5a,5b,8,8,11a-pentamethyl-1-(prop-1-en-2-yl)-2,3,3a,4,5,5a,5b,6,7,7a,8,11,11a,11b,12,13,13a,13b-octadecahydro-1H-cyclopenta[a]chrysen-9-yl)benzoic acid]: the pEC50 (class symbols (key in Table 1)) was above 7.00.

For the compound `C=C(C)[C@@H]1CC[C@]2(NCCN3CCOCC3)CC[C@]3(C)[C@H](CC[C@@H]4[C@@]5(C)CC=C(c6ccc(C(=O)O)c(F)c6)C(C)(C)[C@@H]5CC[C@]43C)[C@@H]12` [Example A3, 2-fluoro-4-((1R,3aS,5aR,5bR,7aR,11aS,11bR,13aR,13bR)-5a,5b,8,8,11a-pentamethyl-3a-(2-morpholinoethylamino)-1-(prop-1-en-2-yl)-2,3,3a,4,5,5a,5b,6,7,7a,8,11,11a,11b,12,13,13a,13b-octadecahydro-1H-cyclopenta[a]chrysen-9-yl)benzoic acid], the pEC50 (class symbols (key in Table 1)) was above 7.00.

`C=C(C)[C@@H]1CC[C@]2(NC(=O)CNS(=O)(=O)c3cccs3)CC[C@]3(C)[C@H](CC[C@@H]4[C@@]5(C)CC=C(c6ccc(C(=O)O)cc6)C(C)(C)[C@@H]5CC[C@]43C)[C@@H]12` [Example 115, 4-((1R,3aS,5aR,5bR,7aR,11aS,11bR,13aR,13bR)-5a,5b,8,8,11a-pentamethyl-1-(prop-1-en-2-yl)-3a-(2-(thiophene-2-sulfonamido)acetamido)-2,3,3a,4,5,5a,5b,6,7,7a,8,11,11a,11b,12,13,13a,13b-octadecahydro-1H-cyclopenta[a]chrysen-9-yl)benzoic acid]: the pEC50 (class symbols (key in Table 1)) is above 7.00. For `C=C(C)[C@@H]1CC[C@]2(NC(=O)N3CCCN(C)CC3)CC[C@]3(C)[C@H](CC[C@@H]4[C@@]5(C)CC=C(c6ccc(C(=O)O)cc6)C(C)(C)[C@@H]5CC[C@]43C)[C@@H]12` [Example 34, 4-((1R,3aS,5aR,5bR,7aR,11aS,11bR,13aR,13bR)-5a,5b,8,8,11a-pentamethyl-3a-(4-methyl-1,4-diazepane-1-carboxamido)-1-(prop-1-en-2-yl)-2,3,3a,4,5,5a,5b,6,7,7a,8,11,11a,11b,12,13,13a,13b-octadecahydro-1H-cyclopenta[a]chrysen-9-yl)benzoic acid], under “numeric values”, the pEC50 was 8.70.

For the compound `C=C(C)[C@@H]1CC[C@]2(NCC3CCCNC3)CC[C@]3(C)[C@H](CC[C@@H]4[C@@]5(C)CC=C(c6ccc(C(=O)O)cc6)C(C)(C)[C@@H]5CC[C@]43C)[C@@H]12` (stereo partly drawn) [Example 175, 4-((1R,3aS,5aR,5bR,7aR,11aS,11bR,13aR,13bR)-5a,5b,8,8,11a-pentamethyl-3a-(piperidin-3-ylmethylamino)-1-(prop-1-en-2-yl)-2,3,3a,4,5,5a,5b,6,7,7a,8,11,11a,11b,12,13,13a,13b-octadecahydro-1H-cyclopenta[a]chrysen-9-yl)benzoic acid], where the note is “numeric values”, the pEC50 is 8.00.

Consider `C=C(C)[C@@H]1CC[C@]2(NC(=O)CN3CCSCC3)CC[C@]3(C)[C@H](CC[C@@H]4[C@@]5(C)CC=C(c6ccc(C(=O)O)cc6)C(C)(C)[C@@H]5CC[C@]43C)[C@@H]12` [Example 98, 4-((1R,3aS,5aR,5bR,7aR,11aS,11bR,13aR,13bR)-5a,5b,8,8,11a-pentamethyl-1-(prop-1-en-2-yl)-3a-(2-thiomorpholinoacetamido)-2,3,3a,4,5,5a,5b,6,7,7a,8,11,11a,11b,12,13,13a,13b-octadecahydro-1H-cyclopenta[a]chrysen-9-yl)benzoic acid], for which the pEC50 (class symbols (key in Table 1)) was above 7.00. For the compound `C=C(C)[C@@H]1CC[C@]2(NCc3csc(C)n3)CC[C@]3(C)[C@H](CC[C@@H]4[C@@]5(C)CC=C(c6ccc(C(=O)O)cc6)C(C)(C)[C@@H]5CC[C@]43C)[C@@H]12` [Example 162, 4-((1R,3aS,5aR,5bR,7aR,11aS,11bR,13aR,13bR)-5a,5b,8,8,11a-pentamethyl-3a-((2-methylthiazol-4-yl)methylamino)-1-(prop-1-en-2-yl)-2,3,3a,4,5,5a,5b,6,7,7a,8,11,11a,11b,12,13,13a,13b-octadecahydro-1H-cyclopenta[a]chrysen-9-yl)benzoic acid], the pEC50 (class symbols (key in Table 1)) was above 7.00. In the case of `C=C(C)[C@@H]1CC[C@]2(NC(=O)OCCCN3CCS(=O)(=O)CC3)CC[C@]3(C)[C@H](CC[C@@H]4[C@@]5(C)CC=C(c6ccc(C(=O)O)cc6)C(C)(C)[C@@H]5CC[C@]43C)[C@@H]12` [Example 70, benzoic acid, 4-[(1R,3aS,5aR,5bR,7aR,11aS,11bR,13aR,13bR)-3a-[[[3-(1,1-dioxido-4-thiomorpholinyl)propoxy]carbonyl]amino]2,3,3a,4,5,5a,5b,6,7,7a,8,11,11a,11b,12,13,13a,13b-octadecahydro-5a,5b,8,8,11a-pentamethyl-1-(1-methylethenyl)-1H-cyclopenta[a]chrysen-9-yl]], for the setting “class symbols (key in Table 1)”, the pEC50 was above 7.00.

On to `C=C(C)[C@@H]1CC[C@]2(NC(=O)CN3C[C@@H](C)O[C@@H](C)C3)CC[C@]3(C)[C@H](CC[C@@H]4[C@@]5(C)CC=C(c6ccc(C(=O)O)cc6)C(C)(C)[C@@H]5CC[C@]43C)[C@@H]12` [Example 83, 4-((1R,3aS,5aR,5bR,7aR,11aS,11bR,13aR,13bR)-3a-(2-((2S,6R)-2,6-dimethylmorpholino)acetamido)-5a,5b,8,8,11a-pentamethyl-1-(prop-1-en-2-yl)-2,3,3a,4,5,5a,5b,6,7,7a,8,11,11a,11b,12,13,13a,13b-octadecahydro-1H-cyclopenta[a]chrysen-9-yl)benzoic acid], for which the pEC50 (class symbols (key in Table 1)) was above 7.00. Same read-out and setting: under `C=C(C)[C@@H]1CC[C@]2(NC(=O)CN3CCCCC3)CC[C@]3(C)[C@H](CC[C@@H]4[C@@]5(C)CC=C(c6ccc(C(=O)O)cc6)C(C)(C)[C@@H]5CC[C@]43C)[C@@H]12` [Example 122, 4-((1R,3aS,5aR,5bR,7aR,11aS,11bR,13aR,13bR)-5a,5b,8,8,11a-pentamethyl-3a-(2-(piperidin-1-yl)acetamido)-1-(prop-1-en-2-yl)-2,3,3a,4,5,5a,5b,6,7,7a,8,11,11a,11b,12,13,13a,13b-octadecahydro-1H-cyclopenta[a]chrysen-9-yl)benzoic acid] stands above 7.00.

Consider `C=C(C)[C@@H]1CC[C@]2(NC(=O)N[C@@H](CO)C(=O)O)CC[C@]3(C)[C@H](CC[C@@H]4[C@@]5(C)CC=C(c6ccc(C(=O)O)cc6)C(C)(C)[C@@H]5CC[C@]43C)[C@@H]12` [Example 18, 4-((1R,3aS,5aR,5bR,7aR,11aS,11bR,13aR,13bR)-3a-(3-((S)-1-carboxy-2-hydroxyethyl)ureido)-5a,5b,8,8,11a-pentamethyl-1-(prop-1-en-2-yl)-2,3,3a,4,5,5a,5b,6,7,7a,8,11,11a,11b,12,13,13a,13b-octadecahydro-1H-cyclopenta[a]chrysen-9-yl)benzoic acid], for which the pEC50 (numeric values) was 6.60. For the compound `C=C(C)[C@@H]1CC[C@]2(NCCN3CCN(S(=O)(=O)c4ccccc4)CC3)CC[C@]3(C)[C@H](CC[C@@H]4[C@@]5(C)CC=C(c6ccc(C(=O)O)cc6)C(C)(C)[C@@H]5CC[C@]43C)[C@@H]12` [Example B44, 4-((1R,3aS,5aR,5bR,7aR,11aS,11bR,13aR,13bR)-5a,5b,8,8,11a-pentamethyl-3a-((2-(4-(phenylsulfonyl)piperazin-1-yl)ethyl)amino)-1-(prop-1-en-2-yl)-2,3,3a,4,5,5a,5b,6,7,7a,8,11,11a,11b,12,13,13a,13b-octadecahydro-1H-cyclopenta[a]chrysen-9-yl)benzoic acid], the pEC50 (class symbols (key in Table 1)) is above 7.00.

For orientation: pEC50 means the EC50 on a negative log10 scale, so that one unit is a factor of ten.
